Test results taken from US9221875B2, “Amphiphilic peptides for treatment of keratitis” (Agency for Science, Technology and Research, priority 2013, dated 2015).
Values after ≈ are worked out from the molar mass of the structure shown. Like-named read-outs stand apart in the source and are kept apart here. Square brackets hold non-standard residues; d marks the D form. Peptide text beside a SMILES is read from it.

Columns and labels:
E. coli [1] = settings: 18 h
in vitro [2] = assay type: cell-based; settings: rat, NR8383 macrophage cells
Description: (§1) HeLa, HDF and NR8383 cells were respectively seeded at a densities of 1×10^4, 1×10^4 and 4×10^4 cells per well of a 96-well plate. Following overnight incubation, the cells were treated with 3.9 to 500 mg L^−1 of (IRIK)3-NH2 (SEQ ID NO: 21) and (VRVK)3-NH2 (SEQ ID NO: 20) for 24 h. For the adherent HeLa and HDF cell lines, the incubation media in each well were replaced with 100 μL of growth media and 10 μL of MTT solution (5 mg·ml^−1 in PBS). The cells were further incubated for 4 h at 37° C. according to the manufacturer's directions. Resultant formazan crystals formed in each well were solubilized using 150 μL of DMSO upon removal of growth media. A 100 μL aliquot from each well was then transferred to a new 96-well plate for determination of absorbance using a microplate spectrophotometer at wavelengths of 550 nm and 690 nm. Relative cell viability was expressed as [(A550−A690)sample/(A550−A690)control]×100%.
For the semi-adherent NR8383 cells, 20 μL of […]-BLUE® reagent was added into each well after treatment and the plate was incubated for a further 4 h. The fluorescence intensity readings of the wells were determined at excitation wavelength of 560 nm and emission wavelength of 590 nm using a microplate reader. […]

S. aureus [3] = settings: 18 h
P. aeruginosa [4] = settings: 18 h
C. albicans [5] = settings: 42 h
in vitro [6] = assay type: cell-based; settings: human
Description: as §1

[7] = tested on: 5 microorganisms tested (S. epidermidis, S. aureus, E. coli, P. aeruginosa, C. albicans); test: Mean MIC over the panel and selectivity index (Example 1); assay type: cell-based
Description: Red blood cells suspension incubated with PBS was used as negative control.

S. epidermidis [8] = settings: 18 h
[9] = tested on: Methicillin-resistant S. aureus; settings: clinical isolate
S. epidermidis [10] = settings: 18 h; remark: listed apart in the source
E. coli [11] = assay type: cell-based, Escherichia coli; settings: end of the experiment (up to 20 passages)
trypsin and proteinase K = assay type: in vitro ADME
Description: One of the major factors limiting the clinical utility of AMPs lies in their instability to rapid degradation by proteases which are present abundantly in biological fluids and/or secreted by microorganisms. In order to evaluate the proteolytic stability of the designed β-sheet forming peptides, the D- and L-isoforms of the n=2 peptide sequence (IK8-all D or IK8-all L, respectively) were treated with the broad spectrum serine proteases, trypsin and proteinase K, for 6 h and evaluated their antimicrobial activities against S. aureus, E. coli and P. aeruginosa. […] The structural integrity of synthetic peptides following treatment with both proteases was also evaluated using MALDI-TOF mass spectroscopy. […] The cleavage sites of both enzymes for the IK8-all L peptide are illustrated in FIG. 19a with the mass spectra peaks assigned to the major fragments.

[12] = tested on: S. aureus and P. aeruginosa; test: FE-SEM analysis of treated bacteria (Example 2); assay type: cell-based, Staphylococcus aureus, Pseudomonas aeruginosa; settings: 125 mg L^−1, 2 h
Description: S. aureus and P. aeruginosa suspensions at ˜3×10^8 CFU mL^−1 (100 μL) were separately incubated with an equal volume of broth containing final concentrations of 10% (by volume) of HPLC water or 125 mg L^−1 of IK8-all D in a 96 well-plate for 2 h. Eight replicates of each condition was pooled into a microfuge tube, pelleted down at 4000 rpm for 5 min, and rinsed twice with PBS. The samples were then fixed with 4% formaldehyde at room temperature for 20 min, followed by rinsing with deionized water. Dehydration of the cells was performed using a series of graded ethanol solutions (35, 50, 75, 90, 95 and 100%). The samples were mounted on a copper tape, allowed to air-dry and sputter coated with platinum for imaging using a FE-SEM setup (JEOL JSM-7400F, Japan).

C. neoformans = test: MBC against clinical isolates; assay type: cell-based; settings: clinical isolate
[13] = tested on: clinically isolated Mycobacterium tuberculosis
P. aeruginosa [14] = test: MBC against clinical isolates; assay type: cell-based; settings: clinical isolate
rabbit red blood cells = assay type: cell-based; settings: red cells of rabbit, 1 h
S. aureus [15] = settings: 18 h; remark: listed apart in the source
[16] = tested on: intracellular S. aureus in RAW264.7 mouse macrophages; assay type: cell-based, Staphylococcus aureus; settings: intracellular in RAW264.7 mouse macrophages, 8 h
Description: RAW264.7 cells were seeded at a density of 4×10^5 per well of a 12-well plate. Following an overnight incubation, the cells were infected for 1 h with 13.3 μL of processed bacteria (3.0×10^8 CFU mL^−1) to achieve a 10:1 multiplicity of infection. The cells were then rinsed twice with 1×PBS and incubated with 1 mL of fresh media containing 50 μg mL^−1 gentamicin for 45 min to eliminate extracellular bacteria. The media in each well were removed and the infected cells were incubated with fresh media containing 10% (by volume) water or various concentrations of IK8-all D (2, 3.9, 7.8, 15.6 and 31.3 mg L^−1) for up to 4 and 8 h. At the respective time points, the infected cells were trypsinized, rinsed twice with PBS and lyzed with 800 μL of sterile water with incubation at room temperature for 10 min, followed by 5 min sonication. The intracellular bacteria count was determined by plating serially diluted cultures onto LB agar and enumerated after 24 h.

in vitro [17] = assay type: cell-based; settings: mouse, RAW264.7 macrophage cells
Description: RAW264.7 and WI-38 cells were respectively seeded at a density of 1.5×10^4 and 1×10^4 per well of a 96-well plate. Following overnight incubation, the cells were treated with 1.0 to 125 mg L^−1 of IK8-all D for 48 h. Subsequently, the incubation media in each well were replaced with 100 μL of growth media and 10 μL of MTT solution (5 mg·ml^−1 in PBS) and the cells were incubated for 4 h at 37° C. according to the manufacturer's directions. Resultant formazan crystals formed in each well were solubilized using 150 μL of DMSO upon removal of growth media. A 100 μL aliquot from each well was then transferred to a new 96-well plate for determination of absorbance using a microplate spectrophotometer at wavelengths of 550 nm and 690 nm. Relative cell viability was expressed as [(A550−A690)sample/(A550−A690)control]×100%.

E. coli [18] = settings: 18 h; remark: listed apart in the source
C. albicans [19] = tested on: C. albicans
P. aeruginosa [20] = settings: 18 h; remark: listed apart in the source
[21] = tested on: five microorganisms tested (S. epidermidis, S. aureus, E. coli, P. aeruginosa, C. albicans); assay type: cell-based; settings: 18 h
Description: After 18 h treatment of microorganisms with various concentrations of peptide (0.5×MIC, MIC and 2×MIC), the respective samples were subjected to a series of ten-fold dilutions and plated onto LB agar plates. The plates were then incubated overnight and counted for colony-forming units. A sample containing microbes treated with 10% (by volume) water was used as a control. Results are expressed as Log(CFU/mL) and as % Kill=[(cell count of control−survivor count of peptide-treated microbes)/cell count of control]×100.

S. aureus [22] = assay type: cell-based, Staphylococcus aureus; settings: passage 20
[23] = tested on: Vancomycin-resistant Enterococci; settings: clinical isolate
[24] = tested on: clinically isolated drug resistant microorganisms; test: MBC comparison over clinical isolates; assay type: cell-based; settings: antibacterial activities
[25] = tested on: 5 microorganisms tested (S. epidermidis, S. aureus, E. coli, P. aeruginosa, C. albicans); test: Mean MIC over the panel and selectivity index (Example 2)
[26] = tested on: LPS-stimulated NO production in NR8383 rat macrophage cell line; test: Endotoxin neutralization assay (Griess nitrite); assay type: cell-based; settings: 125 mg L^−1 peptide, 100 ng mL^−1 LPS, 18 h
Description: Untreated cells and cells that were stimulated with LPS alone served as the […] controls, respectively. The amount of NO produced was estimated by quantifying the concentration of the stable NO metabolite nitrite in the isolated supernatant fractions using the Griess reagent (1% sulphanilamide, 0.1% N-1-napthylethylenediamine dihydrochloride, 5% phosphoric acid) according to the manufacturer's protocol. The absorbance was measured at 540 nm and nitrite concentrations were determined using a standard reference curve prepared from known concentrations of NaNO2 solutions.

CC(C)[C@H](N)C(=O)N[C@@H](CCCNC(=N)N)C(=O)N[C@H](C(=O)N[C@@H](CCCCN)C(=O)N[C@H](C(=O)N[C@@H](CCCNC(=N)N)C(=O)N[C@H](C(=O)N[C@@H](CCCCN)C(=O)N[C@H](C(=O)N[C@@H](CCCNC(=N)N)C(=O)N[C@H](C(=O)N[C@@H](CCCCN)C(N)=O)C(C)C)C(C)C)C(C)C)C(C)C)C(C)C [(VRVK)3-NH2] (H-VRVKVRVKVRVK-NH2; N-terminus assumed)
MIC E. coli (E. coli [1]): 15.6 µg/mL (≈ 10.6 µM) | viability at 24 h, 250 µg/mL (in vitro [2]): > 53% | MIC S. aureus (S. aureus [3]): 62.5 µg/mL (≈ 42.7 µM) | MIC P. aeruginosa (P. aeruginosa [4]): 62.5 µg/mL (≈ 42.7 µM) | MIC C. albicans (C. albicans [5]): 31.3 µg/mL (≈ 21.4 µM) | viability at 24 h, 250 mg/L (in vitro [6]): 30% | viability at 24 h, 250 µg/mL (in vitro [6]; HDF dermal fibroblast cells): > 53% | GM, geometric mean of MIC values for the 5 microorganisms tested [7]: 34.6 µg/mL | MIC S. epidermidis (S. epidermidis [8]): 1.0 µg/mL (≈ 0.683 µM)

CC[C@@H](C)[C@@H](N)C(=O)N[C@H](CCCNC(=N)N)C(=O)N[C@@H](C(=O)N[C@H](CCCCN)C(=O)N[C@@H](C(=O)N[C@H](CCCNC(=N)N)C(=O)N[C@@H](C(=O)N[C@H](CCCCN)C(N)=O)[C@H](C)CC)[C@H](C)CC)[C@H](C)CC [IK8-all D, irikirik-NH2] (H-[dI][dR][dI][dK][dI][dR][dI][dK]-NH2; N-terminus assumed)
MBC Methicillin-resistant S. aureus [9]: 3.9 µg/mL (≈ 3.76 µM) | MIC S. epidermidis (S. epidermidis [10]): 2.0 µg/mL (≈ 1.93 µM) | MICn/MIC0 (E. coli [11]): 1 | antimicrobial activity after protease treatment (trypsin and proteinase K): retained its antibacterial activities | structural integrity after protease treatment, MALDI-TOF MS (trypsin and proteinase K): remained intact | surface morphology under FE-SEM [12]: significant membrane damage and corrugation | MBC C. neoformans (C. neoformans): 7.8 µg/mL (≈ 7.51 µM) | MIC M. tuberculosis ([13]; strain number 1140): 15.6 µg/mL (≈ 15 µM) | MIC M. tuberculosis ([13]; strain number 1146): 15.6 µg/mL (≈ 15 µM) | MBC P. aeruginosa (P. aeruginosa [14]): 15.6 µg/mL (≈ 15 µM) | HC10, haemolysis concentration 10%: lowest peptide concentration that induces ≧10% haemolysis (rabbit red blood cells): 1750 mg/L | MIC S. aureus (S. aureus [15]): 3.9 µg/mL (≈ 3.76 µM) | log reductions in intracellular S. aureus colony counts compared to the control [16]: 1.2-1.5 log | viability at 48 h (in vitro [17]): > 80% | MBC A. baumanni (A. baumanni): 31.3 µg/mL (≈ 30.1 µM) | MIC E. coli (E. coli [18]): 3.9 µg/mL (≈ 3.76 µM) | MIC C. albicans (C. albicans [19]): 3.9 µg/mL (≈ 3.76 µM) | MIC P aeruginosa (P. aeruginosa [20]): 7.8 µg/mL (≈ 7.51 µM) | killing efficiencies [21]: > 99.9% | log reductions in colony counts [21]; 2: more than 3 log | MICn/MIC0, fold increase in MIC (S. aureus [22]): 1 | MBC Vancomycin-resistant Enterococci [23]: 3.9 µg/mL (≈ 3.76 µM) | folds reduction in MBCs compared with the L-enantiomer [24]: 4-8 folds | GM, geometric mean of MIC values for the 5 microorganisms tested [25]: 4.3 µg/mL | fold reduction in MIC values compared with the L-enantiomer ([25]; against the various bacteria): 2-16 fold

CC[C@H](C)[C@H](N)C(=O)N[C@@H](CCCNC(=N)N)C(=O)N[C@H](C(=O)N[C@@H](CCCCN)C(=O)N[C@H](C(=O)N[C@@H](CCCNC(=N)N)C(=O)N[C@H](C(=O)N[C@@H](CCCCN)C(=O)N[C@H](C(=O)N[C@@H](CCCNC(=N)N)C(=O)N[C@H](C(=O)N[C@@H](CCCCN)C(N)=O)[C@@H](C)CC)[C@@H](C)CC)[C@@H](C)CC)[C@@H](C)CC)[C@@H](C)CC [(IRIK)3-NH2] (H-IRIKIRIKIRIK-NH2; N-terminus assumed)
MIC E. coli (E. coli [1]): 125 µg/mL (≈ 80.7 µM) | viability at 24 h, 125 µg/mL (in vitro [2]): > 80% | MIC S. aureus (S. aureus [3]): 62.5 µg/mL (≈ 40.3 µM) | MIC P. aeruginosa (P. aeruginosa [4]): 500 µg/mL (≈ 323 µM) | MIC C. albicans (C. albicans [5]): 125 µg/mL (≈ 80.7 µM) | viability at 24 h, 125 µg/mL (in vitro [6]; HDF dermal fibroblast cells): > 80% | GM, geometric mean of MIC values for the 5 microorganisms tested [7]: 162.7 µg/mL | nitrite concentration, LPS-stimulated NO production [26]: reduced to the control level | MIC S. epidermidis (S. epidermidis [8]): 1.0 µg/mL (≈ 0.646 µM)
